Source: patent publication US20120309750A1, “5-MEMBERED HETEROCYCLE DERIVATIVES AND MANUFACTURING PROCESS THEREOF” (ILDONG PHARM CO., LTD., priority 2010, published 2012)

Columns and labels:
[1] = system: human colorectal cancer cells (HCT116); experiment: Growth inhibition assay (cytotoxicity) in HCT116; format: cell-based; conditions: HCT-116
Description: (§1) For present invention, the ATPase activity of yeast HSP90 was measured using malachite green assay. Formula I compounds for primary antitumoral activity were treated in human colorectal cancer cells (HCT116) showing increased expression levels of HSP90 client protein and cotoxicity IC50 values was measured as a result.

[2] = target: yeast HSP90 (Saccharomyces cerevisiae, UniProt P02829); experiment: Hsp90 ATPase assay (malachite green); format: biochemical
Description: as §1

yeast HSP90, sequence (P02829 whole entry): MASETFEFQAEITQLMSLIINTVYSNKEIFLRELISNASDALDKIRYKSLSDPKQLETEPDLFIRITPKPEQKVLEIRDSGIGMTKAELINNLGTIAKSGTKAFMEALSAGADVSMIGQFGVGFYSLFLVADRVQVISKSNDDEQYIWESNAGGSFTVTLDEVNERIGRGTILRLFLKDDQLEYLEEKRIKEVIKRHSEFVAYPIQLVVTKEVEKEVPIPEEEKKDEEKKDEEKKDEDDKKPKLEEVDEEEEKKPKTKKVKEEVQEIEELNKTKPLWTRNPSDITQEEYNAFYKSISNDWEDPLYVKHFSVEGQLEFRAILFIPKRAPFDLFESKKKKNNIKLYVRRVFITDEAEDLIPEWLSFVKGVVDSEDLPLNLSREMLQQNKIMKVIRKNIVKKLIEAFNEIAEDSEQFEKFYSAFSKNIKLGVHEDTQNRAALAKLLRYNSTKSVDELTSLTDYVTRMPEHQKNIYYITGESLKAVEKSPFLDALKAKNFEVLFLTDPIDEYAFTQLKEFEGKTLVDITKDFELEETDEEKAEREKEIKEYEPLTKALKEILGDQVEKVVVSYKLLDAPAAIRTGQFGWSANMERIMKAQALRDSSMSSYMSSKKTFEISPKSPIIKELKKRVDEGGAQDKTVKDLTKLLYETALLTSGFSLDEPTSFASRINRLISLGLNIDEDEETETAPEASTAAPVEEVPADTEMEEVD

Row | IC50 [2] [nM] | SMILES | IC50 [1] [nM]
1 | < 500 | CCNC(=O)c1noc(-c2cc(C(C)C)c(O)cc2O)c1-c1ccc(CN2CCOCC2)s1 [Compound I-1, 5-(2,4-Dihydroxy-5-isopropylphenyl)-N-ethyl-4-(5-(morpholinomethyl)thiophen-2-yl)isoxazole-3-carboxamide] | < 500
2 | > 1000 | CCNC(=O)c1noc(-c2cc(C(C)C)c(O)cc2O)c1-c1ccsc1CN1CCOCC1 [Compound I-2, 5-(2,4-Dihydroxy-5-isopropylphenyl)-N-ethyl-4-(2-(morpholinomethyl)thiophen-3-yl)isoxazole-3-carboxamide] | < 500
3 | > 1000 | CC(C)c1cc(-c2onc(CO)c2-c2ccsc2)c(O)cc1O [Compound I-3, 4-(3-(Hydroxymethyl)-4-(thiophen-3-yl)isoxazol-5-yl)-6-isopropylbenzene-1,3-diol] | > 1000
4 | > 1000 | CCC(=O)NCc1noc(-c2cc(C(C)C)c(O)cc2O)c1-c1ccsc1 [Compound I-4, N-((5-(2,4-Dihydroxy-5-isopropylphenyl)-4-(thiophen-3-yl)isoxazol-3-yl)methyl)propionamide] | > 1000
5 | > 1000 | CC(C)c1cc(-c2onc(Cn3ccnn3)c2-c2ccsc2)c(O)cc1O [Compound I-5, 4-(3-((1H-1,2,3-Triazol-1-yl)methyl)-4-(thiophen-3-yl)isoxazol-5-yl)-6-isopro pylbenzene-1,3-diol] | < 500
6 | > 1000 | CC(=O)NCc1noc(-c2cc(C(C)C)c(O)cc2O)c1-c1ccsc1 [Compound I-6, N-((5-(2,4-Dihydroxy-5-isopropylphenyl)-4-(thiophen-3-yl)isoxazol-3-yl)methyl)acetamide] | < 500
7 | 500 to 1000 | CCNC(=O)c1noc(-c2cc(C(C)C)c(O)cc2O)c1C1CC(C(=O)OCC)=NO1 (stereo not drawn) [Compound I-7, Ethyl 5-(5-(2,4-dihydroxy-5-isopropylphenyl)-3-(ethylcarbamoyl)isoxazol-4-yl)-4,5-dihydroisoxazole-3-carboxylate] | 500 to 1000
8 | 500 to 1000 | CCNC(=O)C1=NOC(c2c(C(=O)NCC)noc2-c2cc(C(C)C)c(O)cc2O)C1 (stereo not drawn) [Compound I-8, 5-(2,4-Dihydroxy-5-isopropylphenyl)-N-ethyl-4-(3-(ethylcarbamoyl)-4,5-dihydroisoxazol-5-yl)isoxazole-3-carboxamide] | < 500
9 | 500 to 1000 | CCNC(=O)c1noc(-c2cc(C(C)C)c(O)cc2O)c1C1CC(CO)=NO1 (stereo not drawn) [Compound I-9, 5-(2,4-Dihydroxy-5-isopropylphenyl)-N-ethyl-4-(3-(hydroxymethyl)-4,5-dihydroisoxazol-5-yl)isoxazole-3-carboxamide] | < 500
10 | 500 to 1000 | CCNC(=O)c1noc(-c2cc(C(C)C)c(O)cc2O)c1-c1nnn[nH]1 [Compound I-10, 5-(2,4-Dihydroxy-5-isopropylphenyl)-N-ethyl-4-(1H-tetrazol-5-yl)isoxazole-3-carboxamide] | > 1000
11 | < 500 | CCNC(=O)c1noc(-c2cc(C(C)C)c(O)cc2O)c1-c1nnnn1C [Compound I-11, 5-(2,4-Dihydroxy-5-isopropylphenyl)-N-ethyl-4-(1-methyl-1H-tetrazol-5-yl)isoxazole-3-carboxamide] | < 500
12 | < 500 | CCNC(=O)c1noc(-c2cc(C(C)C)c(O)cc2O)c1-c1nnn(C)n1 [Compound I-12, 5-(2,4-Dihydroxy-5-isopropylphenyl)-N-ethyl-4-(2-methyl-2H-tetrazol-5-yl)isoxazole-3-carboxamide] | < 500
13 | < 500 | CCNC(=O)c1noc(-c2cc(C(C)C)c(O)cc2O)c1-c1nnnn1CC [Compound I-13, 5-(2,4-Dihydroxy-5-isopropylphenyl)-N-ethyl-4-(1-ethyl-1H-tetrazol-5-yl)isoxazole-3-carboxamide] | < 500
14 | < 500 | CCNC(=O)c1noc(-c2cc(C(C)C)c(O)cc2O)c1-c1nnn(CC)n1 [Compound I-14, 5-(2,4-Dihydroxy-5-isopropylphenyl)-N-ethyl-4-(2-ethyl-2H-tetrazol-5-yl)isoxazole-3-carboxamide] | < 500
15 | < 500 | CCNC(=O)c1noc(-c2cc(C(C)C)c(O)cc2O)c1-c1cc(C(=O)OCC)no1 [Compound I-15, Ethyl 5-(2,4-dihydroxy-5-isopropylphenyl)-3-(ethylcarbamoyl)-4,5′-biisoxazole-3′-carboxylate] | > 1000
16 | < 500 | CCNC(=O)c1cc(-c2c(C(=O)NCC)noc2-c2cc(C(C)C)c(O)cc2O)on1 [Compound I-16, 5-(2,4-Dihydroxy-5-isopropylphenyl)-N^3,N^3′-diethyl-4,5′-biisoxazole-3,3′-dicarboxamide] | < 500

Row | IC50 [2] [nM] | SMILES | IC50 [1] [nM]
17 | < 500 | CCNC(=O)c1noc(-c2cc(C(C)C)c(O)cc2O)c1-c1cc(CO)no1 [Compound I-17, 5-(2,4-Dihydroxy-5-isopropylphenyl)-N-ethyl-3′-(hydroxymethyl)-4,5′-biisoxazole-3-carboxamide] | < 500
18 | 500 to 1000 | CCNC(=O)c1noc(-c2cc(C(C)C)c(O)cc2O)c1-c1cc(CN2CCOCC2)no1 [Compound I-18, 5-(2,4-Dihydroxy-5-isopropylphenyl)-N-ethyl-3′-(morpholinomethyl)-4,5′-biisoxazole-3-carboxamide] | < 500
19 | < 500 | CCNC(=O)c1noc(-c2cc(C(C)C)c(O)cc2O)c1-c1cc(COCC(=O)OC)no1 [Compound I-19, Methyl 2-((5-(2,4-dihydroxy-5-isopropylphenyl)-3-(ethylcarbamoyl)-4,5′-biisoxazol-3′-yl)methoxy)acetate] | < 500
20 | < 500 | CCNC(=O)c1noc(-c2cc(C(C)C)c(O)cc2O)c1-c1cc(CN(CC)CC)no1 [Compound I-20, 3′-((Diethylamino)methyl)-5-(2,4-dihydroxy-5-isopropylphenyl)-N-ethyl-4,5′-biisoxazole-3-carboxamide] | < 500
21 | 500 to 1000 | CCNC(=O)c1noc(-c2cc(C(C)C)c(O)cc2O)c1-c1cc(C(N)=O)no1 [Compound I-21, 5-(2,4-Dihydroxy-5-isopropylphenyl)-N^3-ethyl-4,5′-biisoxazole-3,3′-dicarboxamide] | < 500
22 | 500 to 1000 | CCNC(=O)c1noc(-c2cc(C(C)C)c(O)cc2O)c1-c1cc(CNCCO)no1 [Compound I-22, 5-(2,4-Dihydroxy-5-isopropylphenyl)-N-ethyl-3′-((2-hydroxyethylamino)methyl)-4,5′-biisoxazole-3-carboxamide] | < 500
23 | 500 to 1000 | CCNC(=O)c1noc(-c2cc(C(C)C)c(O)cc2O)c1-c1cc(C(=O)N2CCOCC2)no1 [Compound I-23, 5-(2,4-Dihydroxy-5-isopropylphenyl)-N-ethyl-3′-(morpholine-4-carbonyl)-4,5′-biisoxazole-3-carboxamide] | < 500
24 | 500 to 1000 | CCNC(=O)c1noc(-c2cc(Cl)c(O)cc2O)c1-c1cc(CO)no1 [Compound I-24, 5-(5-Chloro-2,4-dihydroxyphenyl)-N-ethyl-3′-(hydroxymethyl)-4,5′-biisoxazole-3-carboxamide] | > 1000
25 | 500 to 1000 | CCNC(=O)c1noc(-c2cc(Cl)c(O)cc2O)c1-c1cc(C(=O)OCC)no1 [Compound I-25, Ethyl 5-(5-chloro-2,4-dihydroxyphenyl)-3-(ethylcarbamoyl)-4,5′-biisoxazole-3′-carboxylate] | > 1000
26 | > 1000 | CCNC(=O)c1noc(-c2cc(C(C)C)c(O)cc2O)c1-c1cc(C(=O)O)no1 [Compound I-26, 5-(2,4-Dihydroxy-5-isopropylphenyl)-3-(ethylcarbamoyl)-4,5′-biisoxazole-3′-carboxylic acid] | > 1000
27 | < 500 | CCNCc1cc(-c2c(C(=O)NCC)noc2-c2cc(C(C)C)c(O)cc2O)on1 [Compound I-27, 5-(2,4-Dihydroxy-5-isopropylphenyl)-N-ethyl-3′-((ethylamino)methyl)-4,5′-biisoxazole-3-carboxamide] | < 500
28 | < 500 | CCNC(=O)c1noc(-c2cc(C(C)C)c(O)cc2O)c1-c1cc(CF)no1 [Compound I-28, 5-(2,4-Dihydroxy-5-isopropylphenyl)-N-ethyl-3′-(fluoromethyl)-4,5′-biisoxazole-3-carboxamide] | < 500
29 | > 1000 | CCNC(=O)c1cc(-c2c(C(=O)NCC)n[nH]c2-c2cc(C(C)C)c(O)cc2O)on1 [Compound I-29, 5-(5-(2,4-Dihydroxy-5-isopropylphenyl)-3-(ethylcarbamoyl)-1H-pyrazol-4-yl)-N-ethylisoxazole-3-carboxamide] | > 1000
30 | 500 to 1000 | CCNC(=O)c1noc(-c2cc(C(C)C)c(O)cc2O)c1-c1cc(CN)no1 [Compound I-30, 3′-(Aminomethyl)-5-(2,4-dihydroxy-5-isopropylphenyl)-N-ethyl-4,5′-biisoxazole-3-carboxamide] | < 500
31 | 500 to 1000 | CCNC(=O)c1noc(-c2cc(C(C)C)c(O)cc2O)c1-c1cc(CNC(C)=O)no1 [Compound I-31, 3′-(Acetamidomethyl)-5-(2,4-dihydroxy-5-isopropylphenyl)-N-ethyl-4,5′-biisoxazole-3-carboxamide] | < 500
32 | > 1000 | CCNC(=O)c1noc(-c2cc(C(C)C)c(O)cc2O)c1-c1cc(COCC(=O)O)no1 [Compound I-33, 2-((5-(2,4-Dihydroxy-5-isopropylphenyl)-3-(ethylcarbamoyl)-4,5′-biisoxazol-3′-yl)methoxy)acetic acid] | > 1000

Row | SMILES | IC50 [2] [nM] | IC50 [1] [nM]
33 | CCNC(=O)c1noc(-c2cc(C(C)C)c(O)cc2O)c1-c1cc(COS(C)(=O)=O)no1 [Compound I-32, (5-(2,4-Dihydroxy-5-isopropylphenyl)-3-(ethylcarbamoyl)-4,5′-biisoxazol-3′-yl)methyl methanesulfonate] | < 500 | < 500
